Assays:
ACSS2 [1] = target: T1, ACSS2 (Homo sapiens, UniProt Q9NR19); assay: Acyl-CoA synthetases selectivity panel: ACSS2; format: biochemical; set-up: purchased Cusabio, China; conditions: human recombinant protein, substrate acetate, AMP readout by HPLC; read-out: HPLC based activity assays IC50 (UM) ACSS2
Description: (§1) The biochemical assays for testing the selectivity of the compounds according to this invention, were done using human recombinant proteins (Cusabio, China). The readout of the assays was AMP levels, the […] of the reactions, by HPLC method. The acyl substrates (Sigma-Aldrich) of the assays were as followed: ACSS1/ACSS2—Acetate, AACS-Acetoacetyl, ACSF2—Octanoate and ACSL5—Palmitate. The protein in this panel include ACSS1, the closest homolog of ACSS2, in addition to representative short/medium/long chain acyl-CoA syntatases.

ACSS1 = target: T2, ACSS1 (Homo sapiens, UniProt Q9NUB1); assay: Acyl-CoA synthetases selectivity panel: ACSS1; format: biochemical; conditions: human recombinant protein, substrate acetate, AMP readout by HPLC; read-out: HPLC based activity assays IC50 (UM) ACSS1
T2 construct: purchased Cusabio, China
T2 sequence (Q9NUB1 38-689): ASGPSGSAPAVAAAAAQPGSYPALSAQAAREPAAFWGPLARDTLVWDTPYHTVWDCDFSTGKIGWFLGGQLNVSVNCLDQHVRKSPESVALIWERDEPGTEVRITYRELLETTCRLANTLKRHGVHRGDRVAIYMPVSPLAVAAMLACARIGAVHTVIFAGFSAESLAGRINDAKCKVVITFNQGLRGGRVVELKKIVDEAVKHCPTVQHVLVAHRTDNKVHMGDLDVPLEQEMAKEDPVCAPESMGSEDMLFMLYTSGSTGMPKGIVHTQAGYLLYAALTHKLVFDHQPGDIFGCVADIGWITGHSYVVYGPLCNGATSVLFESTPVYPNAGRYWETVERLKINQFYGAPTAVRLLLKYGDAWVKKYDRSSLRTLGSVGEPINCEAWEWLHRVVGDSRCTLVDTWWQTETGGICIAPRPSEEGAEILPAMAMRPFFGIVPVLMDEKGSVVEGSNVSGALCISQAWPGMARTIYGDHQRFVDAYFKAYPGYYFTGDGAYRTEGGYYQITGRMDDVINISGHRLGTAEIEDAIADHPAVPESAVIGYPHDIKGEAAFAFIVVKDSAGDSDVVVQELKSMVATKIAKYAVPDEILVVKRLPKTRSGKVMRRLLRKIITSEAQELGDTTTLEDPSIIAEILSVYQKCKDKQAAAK
Description: as §1

AACS = target: T3, AACS (Homo sapiens, UniProt Q86V21); assay: Acyl-CoA synthetases selectivity panel: AACS; format: biochemical; conditions: human recombinant protein, substrate acetoacetyl, AMP readout by HPLC; read-out: HPLC based activity assays IC50 (UM) AACS
T3 construct: purchased Cusabio, China
T3 sequence (Q86V21 1-672): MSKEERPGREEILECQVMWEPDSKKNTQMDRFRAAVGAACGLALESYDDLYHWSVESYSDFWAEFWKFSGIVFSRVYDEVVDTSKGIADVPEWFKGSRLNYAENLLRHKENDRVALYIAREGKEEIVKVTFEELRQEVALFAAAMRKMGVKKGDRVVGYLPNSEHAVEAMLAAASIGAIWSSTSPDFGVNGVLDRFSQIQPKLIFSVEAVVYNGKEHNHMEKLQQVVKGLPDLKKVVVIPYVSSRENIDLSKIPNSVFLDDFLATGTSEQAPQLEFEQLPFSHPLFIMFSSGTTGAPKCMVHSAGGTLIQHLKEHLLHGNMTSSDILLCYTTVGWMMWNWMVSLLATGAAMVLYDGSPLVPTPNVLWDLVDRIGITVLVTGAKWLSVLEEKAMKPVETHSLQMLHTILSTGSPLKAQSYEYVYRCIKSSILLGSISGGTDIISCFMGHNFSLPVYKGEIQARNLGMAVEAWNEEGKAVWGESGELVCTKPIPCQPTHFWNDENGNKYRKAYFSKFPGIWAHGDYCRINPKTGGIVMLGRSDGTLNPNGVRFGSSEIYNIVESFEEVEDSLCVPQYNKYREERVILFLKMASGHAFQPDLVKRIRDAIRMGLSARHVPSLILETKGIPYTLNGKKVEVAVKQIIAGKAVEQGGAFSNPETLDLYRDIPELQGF
Description: as §1

ACSL5 = target: T4, ACSL5 (Homo sapiens, UniProt Q9ULC5); assay: Acyl-CoA synthetases selectivity panel: ACSL5; format: biochemical; conditions: human recombinant protein, substrate palmitate, AMP readout by HPLC; read-out: HPLC based activity assays IC50 (UM) ACSL5
T4 construct: purchased Cusabio, China
T4 sequence (Q9ULC5 1-683): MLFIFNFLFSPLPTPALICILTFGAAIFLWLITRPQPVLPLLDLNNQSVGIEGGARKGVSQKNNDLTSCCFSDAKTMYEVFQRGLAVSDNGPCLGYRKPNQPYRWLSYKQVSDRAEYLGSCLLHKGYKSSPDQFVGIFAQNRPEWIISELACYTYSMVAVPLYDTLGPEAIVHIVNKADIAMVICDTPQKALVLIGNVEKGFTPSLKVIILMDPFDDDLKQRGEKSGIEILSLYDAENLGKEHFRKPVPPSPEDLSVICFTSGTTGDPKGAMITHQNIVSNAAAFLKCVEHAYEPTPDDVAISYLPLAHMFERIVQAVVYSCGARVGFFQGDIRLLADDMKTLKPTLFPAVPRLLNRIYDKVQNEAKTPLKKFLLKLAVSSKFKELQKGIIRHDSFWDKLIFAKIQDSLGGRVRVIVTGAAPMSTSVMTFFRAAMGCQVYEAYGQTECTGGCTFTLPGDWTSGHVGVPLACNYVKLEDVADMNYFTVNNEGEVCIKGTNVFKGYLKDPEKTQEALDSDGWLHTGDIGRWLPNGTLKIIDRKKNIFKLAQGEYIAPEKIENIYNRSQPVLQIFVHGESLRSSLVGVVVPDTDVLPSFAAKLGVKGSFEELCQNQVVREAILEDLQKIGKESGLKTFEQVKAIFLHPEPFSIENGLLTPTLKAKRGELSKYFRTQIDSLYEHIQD
Description: as §1

ACSF2 = target: T5, ACSF2 (Homo sapiens, UniProt Q96CM8); assay: Acyl-CoA synthetases selectivity panel: ACSF2; format: biochemical; conditions: human recombinant protein, substrate octanoate, AMP readout by HPLC; read-out: HPLC based activity assays IC50 (UM) ACSF2
T5 construct: purchased Cusabio, China
T5 sequence (Q96CM8 42-615): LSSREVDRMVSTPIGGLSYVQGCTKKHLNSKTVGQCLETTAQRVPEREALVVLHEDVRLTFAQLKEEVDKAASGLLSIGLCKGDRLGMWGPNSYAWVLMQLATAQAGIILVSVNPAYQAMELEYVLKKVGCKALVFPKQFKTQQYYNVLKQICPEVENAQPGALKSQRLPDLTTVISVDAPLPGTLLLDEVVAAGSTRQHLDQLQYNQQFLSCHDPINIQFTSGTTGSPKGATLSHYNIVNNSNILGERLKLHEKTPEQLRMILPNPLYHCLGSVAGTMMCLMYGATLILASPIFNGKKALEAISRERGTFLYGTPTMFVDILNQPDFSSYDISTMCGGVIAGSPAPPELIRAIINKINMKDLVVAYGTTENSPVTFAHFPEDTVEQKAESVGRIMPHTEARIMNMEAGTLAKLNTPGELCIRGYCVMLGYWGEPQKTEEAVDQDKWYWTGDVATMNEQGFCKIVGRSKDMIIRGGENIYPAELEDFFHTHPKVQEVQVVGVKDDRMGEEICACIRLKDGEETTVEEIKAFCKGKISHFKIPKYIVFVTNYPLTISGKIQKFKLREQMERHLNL
Description: as §1

ACSS2 [2] = target: T1, ACSS2; assay: cell-based
Protocol: The cellular activity of ACSS2 was based on tracing the incorporation of carbons from ^13C-Acetate into fatty-acids.
BT474/MDA-MB-468 cells growing in DMEM+25 mM D-glucose+1 mM sodium pyruvate+10% FBS+2 mM glutamine were plated in 12-well plates at 0.4×10^6 cells/well. The cells were then incubated at CO2 incubator for 24 hrs at hypoxic conditions (1% O2) before treated with compounds. At day 2, the medium was replaced to DMEM medium containing 15 mM Glucose, 1 mM Pyruvate, 0.65 mM Glutamine, 1% Dialyzed serum, 3.5 ug/ml Biotin, 0.2 mM ^13C-Acetate and various concentrations of the compounds. The cells were incubated for 5 hours at CO2 incubator in hypoxic conditions (1% O2). At the end of the 5 hours' incubation, the cells were washed twice with cold PBS, harvested in 1 ml PBS and transfer into V-shaped HPLC glass vials and centrifuge for 10 min at 600 g at 4 C. The supernatant was removed, and the cells' pellets were stored at −80° C. until taken for saponification.
The cells pellets were resuspended with 0.5 ml of the 90% Methanol, 10% H2O, 0.3M NaOH mixture and incubated at 80° C. for 60 min. Following the incubation, 50 μl formic acid and 0.4 ml hexane were added and the mixture was vortexed for 2 minutes. The vials were left few minutes for phases separation and then 200 μl of the top hexane phase extracted to a new glass vial. The hexane was dried under nitrogen and reconstituted in 100 μl of Methanol: Acetonitrile 5:3 mixture. The solution transferred to Eppendorf tubes, spun down at 17000G for 20 min and transferred to LC-MS vials.
The analysis was performed with Thermo Q Exactive mass spectrometer with HESI probe and Dionex Ultimate 3000 UHPLC system. The separations were performed on Phenomenex Kintex 2.6u XB-C18 100A 150×2.10 mm column by injecting 5 ul of each sample. The chromatography started with a linear gradient from 85% to 100% of organic solvent (Methanol: Acetonitrile 1:1) versus 10 mM Ammonium Acetate buffer pH 4.7 for 3.5 minutes, followed by 4.5 minutes of isocratic 100% organic solvent and then 3 minutes of isocratic initial conditions, at a flow rate of 0.3 ul/min. The MS source conditions that were used: capillary temperature 325° C., sheath flow 25, aux flow 15, spray voltage 3.8 kV, aux temperature 300° C. The data collected from Negative ion mode at resolution of 70000 at Full-MS mode in 75-1000 m/z range.
The analysis of ^13C acetate incorporation into fatty acids (palmitate, myristate and stearate) performed on TraceFinder 3.2.512.0. The negative control areas and ^13C isotopic theoretical natural abundance were subtracted from the samples areas. Total ^13C incorporation for each fatty-acid (palmitate, myristate and stearate) was calculated and presented as percentage of the total amount.

ACSS2 [3] = target: T6, ACSS2 (Mus musculus, UniProt Q9QXG4); assay: PK-PD study: inhibition of 13C incorporation into fatty-acid (palmitate) in vivo; conditions: C57BL/6J mice, 50 mg/kg IP, 13C-ETOH PO at 1 h, plasma at 3 h, read-out: inhibition of 13C-Acetate incorporation into fatty-acids (palmitate)
T6 construct: from tissue; host or cells: whole animal, C57BL/6J mice; plasma palmitate read out
T6 sequence (Q9QXG4 whole entry): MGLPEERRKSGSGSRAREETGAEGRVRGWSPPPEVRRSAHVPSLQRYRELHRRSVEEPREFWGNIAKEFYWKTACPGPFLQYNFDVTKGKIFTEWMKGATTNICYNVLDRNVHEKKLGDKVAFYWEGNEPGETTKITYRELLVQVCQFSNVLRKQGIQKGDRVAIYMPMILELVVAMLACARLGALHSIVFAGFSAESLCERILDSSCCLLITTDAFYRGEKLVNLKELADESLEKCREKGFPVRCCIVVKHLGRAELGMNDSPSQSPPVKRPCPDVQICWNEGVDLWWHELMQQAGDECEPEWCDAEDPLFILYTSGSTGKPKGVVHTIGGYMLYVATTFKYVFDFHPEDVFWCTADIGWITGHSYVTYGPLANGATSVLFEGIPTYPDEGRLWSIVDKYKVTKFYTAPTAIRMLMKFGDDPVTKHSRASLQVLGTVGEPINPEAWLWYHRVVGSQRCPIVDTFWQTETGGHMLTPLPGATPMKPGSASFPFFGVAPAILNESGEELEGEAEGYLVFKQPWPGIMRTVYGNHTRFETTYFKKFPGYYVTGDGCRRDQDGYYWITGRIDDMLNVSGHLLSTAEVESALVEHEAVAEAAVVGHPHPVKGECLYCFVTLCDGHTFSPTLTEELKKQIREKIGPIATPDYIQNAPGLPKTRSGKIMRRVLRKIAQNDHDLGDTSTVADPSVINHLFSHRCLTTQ
Protocol: Overnight fasted Female C57BL/6J mice (3n/group) were dosed at time=0 h with the indicated compound at 50 mg/kg IP (vehicle: 20% Solutol, 80% 0.2M Phosphate buffer pH 7.0). At time 1 h, 13C-ETOH (2.25 gr/kg 13C-ETOH dissolved in saline to a total volume of 10 ml/kg) were administrated by PO. At time 3 h plasma samples were taken for Fatty-acid analysis by Mass-spectrometry. The incorporation of ^13C into palmitate was done by Mass-spectrometry after saponification of the samples and the percent incorporation of ^13C was calculated.

[4] = test system: MDA-MB-468 breast cancer cells xenograft; assay: In-vivo efficacy study in MDA-MB-468 breast cancer cells xenograft; conditions: 100 mg/kg orally once daily; female NMRI nude mice
Protocol: An in-vivo efficacy study was carried out by Charles-River Laboratories at the Freiburg, Germany site.
Tumor fragments from Breast cancer cell line MDA-MB-468 passaged as subcutaneous xenograft were subcutaneously implanted into female NMRI nude mice (Crl:NMRI-Foxnlnu). The animals were randomized into groups (n=10) when tumors volume reached 50 to 250 mm3. […] Body weights and tumor volume [mm3] by caliper were measured twice weekly.

HCT116 = assay: In-vivo model that does not utilize acetate (HCT116); conditions: daily oral dosing

T1 sequence (Q9NR19 whole entry): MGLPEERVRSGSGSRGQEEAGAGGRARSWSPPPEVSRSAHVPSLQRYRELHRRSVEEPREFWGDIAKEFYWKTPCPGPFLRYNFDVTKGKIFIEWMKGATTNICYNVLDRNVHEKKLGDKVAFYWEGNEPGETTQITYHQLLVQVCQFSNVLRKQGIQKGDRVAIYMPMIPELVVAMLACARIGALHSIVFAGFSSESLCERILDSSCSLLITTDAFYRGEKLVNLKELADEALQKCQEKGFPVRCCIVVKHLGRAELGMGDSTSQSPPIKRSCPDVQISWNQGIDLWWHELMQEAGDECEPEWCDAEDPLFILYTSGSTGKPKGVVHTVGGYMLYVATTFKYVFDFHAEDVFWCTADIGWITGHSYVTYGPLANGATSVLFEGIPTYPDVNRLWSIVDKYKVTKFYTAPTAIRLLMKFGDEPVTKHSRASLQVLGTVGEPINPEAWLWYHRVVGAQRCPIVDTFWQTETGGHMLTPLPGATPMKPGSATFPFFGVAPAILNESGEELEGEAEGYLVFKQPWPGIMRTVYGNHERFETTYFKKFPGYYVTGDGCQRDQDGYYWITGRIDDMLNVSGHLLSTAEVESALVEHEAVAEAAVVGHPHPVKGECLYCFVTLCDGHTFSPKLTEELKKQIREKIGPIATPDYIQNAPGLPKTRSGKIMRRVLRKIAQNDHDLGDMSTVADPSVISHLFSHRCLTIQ

Compound | IC50 (ACSS2 [1]) [µM] | IC50 (ACSS1) [µM] | IC50 (AACS) [µM] | IC50 (ACSL5) [µM] | IC50 (ACSF2) [µM] | IC50 (ACSS2 [2]) [µM] | other results
CC1=NN(c2ccccc2)C(=O)C1C(=O)Nc1cccc(-c2ccco2)c1 (centres unmarked) [compound 108] | < 0.001 | 10 to 100 | 84 | 76 | 36 | – | –
CC1=NN(c2ccccc2)C(=O)C1C(=O)Nc1cccc(C(C)(F)F)c1 (centres unmarked) [compound 141] | 0.001 to 0.01 | 10 to 100 | 149 | > 100 | 160 | – | –
CC(=O)Cc1cccc(NC(=O)C2C(=O)N(c3ccccc3)N=C2C)c1 (centres unmarked) [compound 145] | – | – | – | – | – | 0.1 to 1 | –
COC(=O)c1cccc(N2N=C(C)C(C(=O)Nc3cccc(-c4cnccn4)c3)C2=O)c1 (centres unmarked) [compound 164] | – | – | – | – | – | 0.1 to 1 | –
CC1=NN(c2cccc(C(F)(F)F)c2)C(=O)C1C(=O)Nc1cccc(-c2cnccn2)c1 (centres unmarked) [compound 166] | – | – | – | – | – | > 1 | –
COc1ccc(N2N=C(C)C(C(=O)Nc3cccc(C(C)(F)F)c3)C2=O)cn1 (centres unmarked) [compound 242, N-(3-(1,1-difluoroethyl)phenyl)-1-(6-methoxypyridin-3-yl)-3-methyl-5-oxo-4,5-dihydro-1H-pyrazole-4-carboxamide] | – | – | – | – | – | – | inhibition at 50 mg/kg (ACSS2 [3]): 84%
CC1=NN(c2ccc(C(F)(F)F)cc2)C(=O)C1C(=O)Nc1cccc(C(C)(F)F)c1 (centres unmarked) [compound 264, N-(3-(1,1-difluoroethyl)phenyl)-3-methyl-5-oxo-1-(4-(trifluoromethyl)phenyl)-4,5-dihydro-1H-pyrazole-4-carboxamide] | 0.001 to 0.01 | 1 to 10 | 52 | 115 | 43 | – | –
CC1=NN(c2ccc(OC(F)(F)F)cc2)C(=O)C1C(=O)Nc1cc(C(C)(F)F)cs1 (centres unmarked) [compound 296, N-(4-(1,1-difluoroethyl)thiophen-2-yl)-3-methyl-5-oxo-1-(4-(trifluoromethoxy)phenyl)-4,5-dihydro-1H-pyrazole-4-carboxamide] | – | – | – | – | – | – | tumor growth in MDA-MB-468 xenograft model [4]: inhibits tumor growth
CC1=NN(c2ccc(OC(F)F)cc2)C(=O)C1C(=O)Nc1cccc(C(C)(F)F)c1 (centres unmarked) [compound 298, N-(3-(1,1-difluoroethyl)phenyl)-1-(4-(difluoromethoxy)phenyl)-3-methyl-5-oxo-4,5-dihydro-1H-pyrazole-4-carboxamide] | – | – | – | – | – | – | efficacy in a model that does not utilize acetate (HCT116) (HCT116): no efficacy; tumor growth in MDA-MB-468 xenograft model [4]: significant tumor growth delay
CC1=NN(c2ccc(OC(F)F)c(-c3cnccn3)c2)C(=O)C1C(=O)Nc1cccc(C(C)(F)F)c1 (centres unmarked) [compound 328, N-[3-(1,1-difluoroethyl)phenyl]-1-[4-(difluoromethoxy)-3-pyrazin-2-yl-phenyl]-3-methyl-5-oxo-4H-pyrazole-4-carboxamide] | – | – | – | – | – | – | inhibition at 50 mg/kg (ACSS2 [3]): 87%

More lines, main results first:

IC50 (ACSS2 [1]) [µM] | IC50 (ACSS1) [µM] | IC50 (AACS) [µM] | IC50 (ACSL5) [µM] | IC50 (ACSF2) [µM] | IC50 (ACSS2 [2]) [µM] | Compound | other results
– | – | – | – | – | 0.1 to 1 | COC(=O)c1cccc(N2N=C(C)C(C(=O)Nc3cccc(-c4ncc[nH]4)c3)C2=O)c1 (centres unmarked) [compound 167, Methyl 3-(4-((3-(1H-imidazol-2-yl)phenyl)carbamoyl)-3-methyl-5-oxo-4,5-dihydro-1H-pyrazol-1-yl)benzoate] | –
– | – | – | – | – | > 1 | CC1=NN(c2ccccc2)C(=O)C1C(=O)Nc1cccc(C(=O)N(C)C)c1 (centres unmarked) [compound 220] | –
< 0.001 | 10 to 100 | 64 | 35 | 51 | – | COc1ccc(N2N=C(C)C(C(=O)Nc3cccc(-c4ccco4)c3)C2=O)cc1 (centres unmarked) [compound 266, N-(3-(furan-2-yl)phenyl)-1-(4-methoxyphenyl)-3-methyl-5-oxo-4,5-dihydro-1H-pyrazole-4-carboxamide] | –
< 0.001 | 10 to 100 | 19 | 45 | 28 | – | COC(=O)c1cccc(N2N=C(C)C(C(=O)Nc3cccc(-c4ccco4)c3)C2=O)c1 (centres unmarked) [compound 269, methyl 3-(4-((3-(furan-2-yl)phenyl)carbamoyl)-3-methyl-5-oxo-4,5-dihydro-1H-pyrazol-1-yl)benzoate] | –
